# Measurements as given in patent publication US4562073A, “Penicillin derivatives” (Taiho Pharmaceutical Company Limited, priority 1982, dated 1985).
# Tested on: 30 strains of coliform bacilli collected from the living body of humans
# Experiment: MIC50/MIC70 against 30 strains of coliform bacilli
# Format: cell-based
# Details: 70% of the 30 strains; for MIC70 of ampicillin combined with present compound / MIC70 of cephalexin combined with present compound / MIC70 of mecillinam combined with present compound / MIC70 of piperacillin combined with present compound: present compound 10 μg/ml
# Method: The MIC of ampicillin as combined with the present compound (10 μg/ml) was measured against the same bacteria. In the method, the bacteria cultivated in Mueller Hinton Broth (product of DIFCO) and diluted to 10^7 CFU/ml were inoculated into the same medium containing ampicillin and the present compound in a specific concentration, and incubated at 37° C. for 20 hours. […] The bacteria as used in the test were those capable of producing β-lactamase, among which the bacteria marked * in the table are those collected from the living body of human hosts and the others are a stock culture.
# (2) Effects by antibiotics as combined with the present compound
# The compounds of the present invention, ampicillin, mecillinam, piperacillin and cephalexin, each singly used, were also tested for minimal inhibitory concentration against 30 strains of coliform bacilli collected from the living body of humans. The MIC of each antibiotic as combined with the present compound (10 μg/ml) was likewise measured. Table 3 to 6 indicate the results in which MIC50 and MIC70 indicate the minimal inhibitory concentration for inhibiting the growth of 50% and 70% respectively of the strains. The MICs of the present compounds singly used were all more than 25 μg/ml.
"MIC70, ampicillin singly used [µg/mL]",MIC70 of ampicillin combined with present compound [µg/mL],MIC70 of cephalexin combined with present compound [µg/mL],MIC70 of mecillinam combined with present compound [µg/mL],MIC70 of piperacillin combined with present compound [µg/mL],Structure (SMILES)
400,,,,,"CC1(C)S[C@@H]2[C@H](NC(=O)[C@H](N)c3ccccc3)C(=O)N2[C@H]1C(=O)O [Ampicillin, ampicillin, reference compound]"
,50,100,0.39,6.25,"CCOC(=O)c1cn(C[C@@]2(C)[C@H](C(=O)O)N3C(=O)C[C@H]3S2(=O)=O)nn1 [Compound 7, sodium 2β-(4-ethoxycarbonyl-1,2,3-triazol-1-yl)methyl-2α-methylpenam-3α-carboxylate-1,1-dioxide]"
,100,100,0.39,25,"CCOC(=O)c1cnnn1C[C@@]1(C)[C@H](C(=O)O)N2C(=O)C[C@H]2S1(=O)=O [Compound 11, sodium 2β-(5-ethoxycarbonyl-1,2,3-triazol-1-yl)methyl-2α-methylpenam-3α-carboxylate-1,1-dioxide]"
,6.25,25,0.1,3.13,"C[C@]1(Cn2cc(C(=O)O)nn2)[C@H](C(=O)O)N2C(=O)C[C@H]2S1(=O)=O [Compound 16, dipotassium 2β-(4-carboxy-1,2,3-triazol-1-yl)methyl-2α-methylpenam-3α-carboxylate-1,1-dioxide]"
,100,,0.39,50,"C[C@]1(Cn2nncc2C(=O)O)[C@H](C(=O)O)N2C(=O)C[C@H]2S1(=O)=O [Compound 17, dipotassium 2β-(5-carboxy-1,2,3-triazol-1-yl)methyl-2α-methylpenam-3α-carboxylate-1,1-dioxide]"

Structure (SMILES),"MIC70, ampicillin singly used [µg/mL]",MIC70 of ampicillin combined with present compound [µg/mL],MIC70 of cephalexin combined with present compound [µg/mL],MIC70 of mecillinam combined with present compound [µg/mL],MIC70 of piperacillin combined with present compound [µg/mL]
"C[C@]1(Cn2ccnn2)[C@H](C(=O)O)N2C(=O)C[C@H]2S1(=O)=O [Compound 22, sodium 2α-methyl-2β-(1,2,3-triazol-1-yl)methylpenam-3α-carboxylate-1,1-dioxide]",,6.25,50,0.2,1.56
